Experimental data: patent publication US11261170B2, “Aromatic compound, pharmaceutical composition and use thereof” (Sichuan Kelun-Biotech Biopharmaceutical Co., Ltd., priority 2017, dated 2022)

Legend:
PPARα = PPARα (Homo sapiens (Human), UniProt Q07869); assay: Activation of transient transfected PPAR α in HEK293 cells (GAL4-hPPAR α luciferase assay); assay type: cell-based; settings: HEK293 transfected with GAL4-hPPAR α, 24 h incubation
Protocol: Test example 1: Experiment of the compounds on activation of transient transfected PPAR α in HEK293 cells
Plasmid: pcDNA3.1(+)-GAL4-hPPAR α, customized by Nanjing Kebai Biotechnology Co., Ltd.
(§1) Liposome: PGL4.35, customized by Nanjing Kebai Biotechnology Co., Ltd.
(§2) Cell: human embryonic kidney cells HEK293, purchased from ATCC.
(§3) Transfection reagent: Lipofectamine Reagent 3000 purchased from Invitrogen.
(§4) Assay kit: Bright Glo™ Luciferase Assay System purchased from Promega.
(§5) HEK293 cells were incubated in DMEM medium containing 10% of fetal bovine serum at 37° C. in the presence of 5% of CO2. 3×10^5/ml cells were plated in each well of the 6-well plate. When the cell convergence degree reached 50%-80%, 5 μg of liposome PGL4.35 and 5 μg of expression plasmid pcDNA3.1(+)-GAL4-hPPAR α were added to transfect the cells for 24 h and then the cells were collected. The transfected cells were plated in the 96-well plate and the compounds of the application in different concentrations were added, incubated for 24 h, and Bright Glo™ Luciferase Assay System reagent was added for luciferase assay.

PPARδ = PPARδ (Homo sapiens (Human), UniProt Q03181); assay: Activation of transient transfected PPAR δ in HEK293 cells (GAL4-hPPAR δ luciferase assay); assay type: cell-based; settings: HEK293 transfected with GAL4-hPPAR δ, 24 h incubation
Chain of PPARδ (Q03181 whole entry, looked up, the tested form may be a part): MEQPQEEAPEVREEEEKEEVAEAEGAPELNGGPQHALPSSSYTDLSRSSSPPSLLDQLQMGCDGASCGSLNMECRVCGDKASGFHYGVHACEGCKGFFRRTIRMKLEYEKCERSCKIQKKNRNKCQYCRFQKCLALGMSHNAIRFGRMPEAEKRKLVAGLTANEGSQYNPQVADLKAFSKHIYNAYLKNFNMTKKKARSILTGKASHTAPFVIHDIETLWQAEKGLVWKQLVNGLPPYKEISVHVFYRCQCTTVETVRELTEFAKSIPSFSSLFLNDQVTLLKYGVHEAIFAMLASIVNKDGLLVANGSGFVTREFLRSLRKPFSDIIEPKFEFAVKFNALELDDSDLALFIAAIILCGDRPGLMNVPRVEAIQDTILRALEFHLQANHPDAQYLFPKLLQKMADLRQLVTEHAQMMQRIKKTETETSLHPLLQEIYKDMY
Protocol: Test Example 2: Experiment of the Compounds on Activation of Transient Transfected PPAR δ in HEK293 Cells
Plasmid: pcDNA3.1(+)-GAL4-hPPAR δ, customized by Nanjing Kebai Biotechnology Co., Ltd.
as §1, §2, §3, §4
as §5, with “δ” for “α”, “Then, the” for “The”, “reagent” for “reagent was added”, “assay was added.” for “assay.”

[1] = molecular target: hERG potassium ion channel (Homo sapiens (Human), UniProt Q12809); assay: Predictor hERG fluorescence polarization; assay type: binding
Chain of hERG potassium ion channel (Q12809 whole entry): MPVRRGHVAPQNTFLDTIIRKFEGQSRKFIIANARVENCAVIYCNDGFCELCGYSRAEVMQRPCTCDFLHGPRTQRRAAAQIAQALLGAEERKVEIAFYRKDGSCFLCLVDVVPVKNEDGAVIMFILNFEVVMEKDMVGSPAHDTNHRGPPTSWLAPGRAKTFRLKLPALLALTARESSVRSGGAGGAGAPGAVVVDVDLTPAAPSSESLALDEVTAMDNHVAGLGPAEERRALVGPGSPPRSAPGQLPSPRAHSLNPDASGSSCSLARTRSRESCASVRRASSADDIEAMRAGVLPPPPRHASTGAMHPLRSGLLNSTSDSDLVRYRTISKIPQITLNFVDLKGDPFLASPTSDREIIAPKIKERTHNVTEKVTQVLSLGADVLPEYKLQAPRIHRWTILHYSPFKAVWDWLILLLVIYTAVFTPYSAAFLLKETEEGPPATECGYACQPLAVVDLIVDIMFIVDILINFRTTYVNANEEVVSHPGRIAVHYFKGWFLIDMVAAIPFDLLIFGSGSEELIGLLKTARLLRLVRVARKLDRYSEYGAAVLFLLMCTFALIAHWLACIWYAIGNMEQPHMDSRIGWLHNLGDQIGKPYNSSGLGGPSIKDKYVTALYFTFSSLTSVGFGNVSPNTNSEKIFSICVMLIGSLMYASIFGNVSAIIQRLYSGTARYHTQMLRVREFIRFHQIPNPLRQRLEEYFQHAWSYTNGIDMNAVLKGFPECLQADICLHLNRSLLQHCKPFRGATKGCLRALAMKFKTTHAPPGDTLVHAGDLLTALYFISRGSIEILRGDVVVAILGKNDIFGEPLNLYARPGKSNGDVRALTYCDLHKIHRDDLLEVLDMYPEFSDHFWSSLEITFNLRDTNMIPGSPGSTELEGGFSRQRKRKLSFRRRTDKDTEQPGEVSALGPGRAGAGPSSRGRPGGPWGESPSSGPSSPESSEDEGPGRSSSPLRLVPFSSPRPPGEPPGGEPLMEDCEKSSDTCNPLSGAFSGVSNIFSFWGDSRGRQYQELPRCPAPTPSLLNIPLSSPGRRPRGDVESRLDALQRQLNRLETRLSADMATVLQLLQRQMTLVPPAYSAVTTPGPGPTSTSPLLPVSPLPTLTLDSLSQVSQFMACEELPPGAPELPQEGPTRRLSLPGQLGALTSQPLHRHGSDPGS
Protocol: Test Example 5: In Vitro Safety Test
The effect of the compound on hERG potassium ion channel was tested by Predictor™ hERG fluorescence polarization.

[2] = Cytotoxicity test on HepG2 cells (CellTiter Glo); assay type: cell-based; settings: human, incubated for 3 days
Protocol: (§6) Test Example 4: Cytotoxicity Test of Compound on HepG2 & Hek293 Cells
(§7) Cells: human hepatocyte HepG2, purchased from ATCC; Human embryonic kidney cells HEK293: purchased from ATCC;
(§8) Assay reagent: CellTiter Glo® Luminescent Cell Viability Assay, purchased from Promega.
(§9) HepG2 and HEK293 cells were incubated in DMEM/F12 medium containing 10% of fetal bovine serum respectively. A proper amount of cells were plated into a 96-well plate, the plate was placed in an incubator overnight, and the culture medium was removed, and replaced with a complete culture medium containing the compound of the application, and incubated for 3 days. On day 4, an assay reagent CellTiter Glo was added to each well, and the relative luminous unit (RLU) of each well was determined by chemiluminescence. CC50 values of the compound of the application to HepG2 and HEK293 cells were calculated by GraphPad software, and the results were shown in Table 3.

[3] = Cytotoxicity test on HEK293 cells (CellTiter Glo); assay type: cell-based; settings: human, incubated for 3 days
Protocol: as §6, §7, §8, §9

[4] = test system: MCD model of non-alcoholic steatohepatitis; assay: In vivo efficacy study in the MCD model of non-alcoholic steatohepatitis; set-up: species or system C57 Mice; settings: MCD diet mice
Protocol: Test Example 6: In Vivo Efficacy Study of Compound in the MCD Model of Non-Alcoholic Steatohepatitis In this example, comparative test between compound GFT505 from WO2018133705A1 and compounds of the invention was conducted, so as to show the advantages of compounds of the invention. C57 Mice at 8-10 weeks of age (purchased from Vital River Laboratories) were body-weight matched and randomly divided into groups of normal, model, control and test. Mice in normal group were fed with standard chow for 9 weeks. Mice in model group, control group and test group were fed with MCD diet (Methionine-Choline Deficient Diet, Research Diets) for 9 weeks to induce NASH Model. During weeks 5-9 of the 9-week course of MCD diet, the control group and the test group were treated with GFT505 and TM4 of the invention, respectively, and the normal group and model group were treated with 0.5% MC. The dosage regimen was specified in table 5. [table] Animals were dissected after administration on day 35, livers were collected for H&E staining (hematoxylin-eosin staining) and sirius red staining. And then NAFLD activity score, including liver steatosis score, inflammation score and ballooning score, and liver fibrosis score were conducted.

[5] = 1 mg/kg intragastric once every day for 35 days
[6] = 1 mg/kg, 35 days, result in words

Chain of PPARα (Q07869 whole entry, looked up, the tested form may be a part): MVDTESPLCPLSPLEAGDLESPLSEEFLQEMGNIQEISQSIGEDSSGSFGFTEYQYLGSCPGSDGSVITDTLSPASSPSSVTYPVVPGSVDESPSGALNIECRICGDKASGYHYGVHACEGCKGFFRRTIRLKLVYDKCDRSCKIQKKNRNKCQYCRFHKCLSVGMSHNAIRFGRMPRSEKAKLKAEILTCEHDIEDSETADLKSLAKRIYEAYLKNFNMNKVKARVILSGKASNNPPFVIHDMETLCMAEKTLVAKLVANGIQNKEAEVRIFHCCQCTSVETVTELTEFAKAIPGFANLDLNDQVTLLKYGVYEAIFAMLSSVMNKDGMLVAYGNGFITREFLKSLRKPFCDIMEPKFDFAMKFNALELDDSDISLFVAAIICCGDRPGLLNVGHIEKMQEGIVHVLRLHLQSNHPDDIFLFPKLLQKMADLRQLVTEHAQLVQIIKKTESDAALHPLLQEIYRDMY

EC50 (PPARα)	SMILES	EC50 (PPARδ)	IC50 [1]	CC50 at 3 days [2]	CC50 at 3 days [3]	also measured
0.46 µM	COc1ccc2nc(Cl)c(C(=O)/C=C/c3cc(C)c(OC(C)(C)C(=O)O)c(C)c3)cc2c1 [Example 20, (E)-2-(4-(3-(2-chloro-6-methoxy-quinolin-3-yl)-3-oxo-1-propen-1-yl)-2,6-dimethylphenoxy)-2-methylpropionic acid]					
0.0054 µM	COc1ccc2nc(OC)c(C(=O)/C=C/c3cc(C)c(OC(C)(C)C(=O)O)c(C)c3)cc2c1 [Example 21, (E)-2-(4-(3-(2,6-dimethoxy-quinolin-3-yl)-3-oxo-1-propen-1-yl)-2,6-dimethylphenoxy)-2-methylpropionic acid]	0.675 µM	> 10 µM			
0.692 µM	Cc1cc(/C=C/C(=O)c2cc3ccccc3nc2C(F)(F)F)cc(C)c1OC(C)(C)C(=O)O [Example 8, (E)-2-(4-(3-(2-trifluoromethylquinolin-3-yl)-3-oxo-1-propen-1-yl)-2,6-dimethylphenoxy)-2-methylpropionic acid]		> 10 µM	> 10 µM	> 10 µM	
1.93 µM	Cc1cc(/C=C/C(=O)c2cnc3ccccc3c2)cc(C)c1OC(C)(C)C(=O)O [Example 3, (E)-2-(4-(3-(quinolin-3-yl)-3-oxo-1-propen-1-yl)-2,6-dimethylphenoxy)-2-methylpropionic acid]		> 10 µM			
0.00862 µM	COc1ccc2cc(C(=O)/C=C/c3cc(C)c(OC(C)(C)C(=O)O)c(C)c3)c(Cl)nc2c1 [Example 18, (E)-2-(4-(3-(2-chloro-7-methoxy-quinolin-3-yl)-3-oxo-1-propen-1-yl)-2,6-dimethylphenoxy)-2-methylpropionic acid]	0.81 µM	> 10 µM			
	Cc1cc(/C=C/C(=O)c2cc3ccccc3nc2N(C)C)cc(C)c1OC(C)(C)C(=O)O [Example 9, (E)-2-(4-(3-(2-dimethylaminoquinolin-3-yl)-3-oxo-1-propen-1-yl)-2,6-dimethylphenoxy)-2-methylpropionic acid]		> 10 µM			
1.21 µM	Cc1cc(/C=C/C(=O)c2cc3ccccc3s2)cc(C)c1OC(C)(C)C(=O)O [Example 2, (E)-2-(4-(3-(benzo [b]thien-2-yl)-3-oxo-1-propen-1-yl)-2,6-dimethylphenoxy)-2-methylpropionic acid]	6.13 µM	8.24 µM	~7.27 µM	~8.14 µM	
0.00133 µM	COc1ccc2cc(C(=O)/C=C/c3cc(C)c(OC(C)(C)C(=O)O)c(C)c3)c(OC)nc2c1 [Example 19, (E)-2-(4-(3-(2,7-dimethoxy-quinolin-3-yl)-3-oxo-1-propen-1-yl)-2,6-dimethylphenoxy)-2-methylpropionic acid]	0.796 µM	> 10 µM			
	CSc1ccc(C(=O)/C=C/c2cc(C)c(OC(C)(C)C(=O)O)c(C)c2)cc1 [GFT505, reference compound]					Liver fibrosis score (Mean ± SD) [4, 5]: 1.22 ± 0.44; NAFLD activity score (Mean ± SD) [4, 5]: 3.33 ± 0.87; Reduction of NAFLD activity score compared with model group [4, 6]: not statistically significant; Reduction of liver fibrosis score compared with model group [4, 6]: not statistically significant

SMILES	EC50 (PPARα)	EC50 (PPARδ)	IC50 [1]	CC50 at 3 days [2]	CC50 at 3 days [3]	also measured
Cc1cc(/C=C/C(=O)c2cc3ccccc3nc2N2CCOCC2)cc(C)c1OC(C)(C)C(=O)O [Example 11, (E)-2-(4-(3-(2-(morpholin-4-yl)quinolin-3-yl)-3-oxo-1-propen-1-yl)-2,6-dimethylphenoxy)-2-methylpropionic acid]	0.585 µM	4.43 µM				
Cc1cc(/C=C/C(=O)c2cc3ccccc3nc2N2CCCC2)cc(C)c1OC(C)(C)C(=O)O [Example 10, (E)-2-(4-(3-(2-(1-pyrrolidinyl)quinolin-3-yl)-3-oxo-1-propen-1-yl)-2,6-dimethylphenoxy)-2-methylpropionic acid]	0.077 µM	2.51 µM	> 10 µM			
CSc1nc2ccccc2cc1C(=O)/C=C/c1cc(C)c(OC(C)(C)C(=O)O)c(C)c1 [Example 17, (E)-2-(4-(3-(2-methylthioquinolin-3-yl)-3-oxo-1-propen-1-yl)-2,6-dimethylphenoxy)-2-methylpropionic acid]	0.123 µM		> 10 µM			
Cc1cc(/C=C/C(=O)c2cc3ccccc3nc2C)cc(C)c1OC(C)(C)C(=O)O [Example 7, (E)-2-(4-(3-(2-methylquinolin-3-yl)-3-oxo-1-propen-1-yl)-2,6-dimethylphenoxy)-2-methylpropionic acid]	0.752 µM			> 10 µM	> 10 µM	
Cc1cc(/C=C/C(=O)c2cc3ccccc3nc2Cl)cc(C)c1OC(C)(C)C(=O)O [Example 4, (E)-2-(4-(3-(2-chloroquinolin-3-yl)-3-oxo-1-propen-1-yl)-2,6-dimethylphenoxy)-2-methyl propionic acid]	0.278 µM	3.44 µM	> 10 µM	11.3 µM	13.6 µM	
COCCOc1nc2ccccc2cc1C(=O)/C=C/c1cc(C)c(OC(C)(C)C(=O)O)c(C)c1 [Example 6, (E)-2-(4-(3-(2-(2-methoxyethoxy)quinolin-3-yl)-3-oxo-1-propen-1-yl)-2,6-dimethylphenoxy)-2-methylpropionic acid]	0.0528 µM	0.374 µM	> 10 µM	> 10 µM	> 10 µM	
